In brackets after ≈: the same amount, converted by molar mass. Like-named read-outs stand apart in the source and are kept apart here.
Tests used:
[1] = tested on: N. gonorrhoeae ATCC 49226; assay: MIC, CLSI broth microdilution; assay type: cell-based, Neisseria gonorrhoeae; conditions: for MIC: strain ATCC 49226
[2] = molecular target: T1, PBP1 (Neisseria gonorrhoeae, UniProt O05131, A375T/F666S); assay: PBP-binding assay (Bocillin FL) in isolated membrane preparations; set-up: species or system Neisseria gonorrhoeae ATCC 49226
T1 construct: endogenous in cells; host or cells: N. gonorrhoeae ATCC 49226, isolated membrane preparation
Description: (§1) Bacterial membranes were collected by ultracentrifugation.

[3] = tested on: N. gonorrhoeae ATCC 19424; assay: MIC, CLSI broth microdilution; assay type: cell-based; conditions: Neisseria gonorrhoeae, ATCC19424, strain ATCC 19424
[4] = molecular target: T2, PBP2 (Neisseria gonorrhoeae, UniProt P08149, H541N); assay: PBP-binding assay (Bocillin FL) in isolated membrane preparations; set-up: species or system Neisseria gonorrhoeae ATCC 19424
T2 construct: endogenous in cells; host or cells: N. gonorrhoeae ATCC 19424, isolated membrane preparation

[5] = molecular target: T3, PBP2 (Neisseria gonorrhoeae, UniProt P08149, A510V/A516G/A574V/F504L/H541N/I556V/I566V/K555Q/P552V); assay: biochemical; assay type: binding, Neisseria gonorrhoeae ATCC 49226; conditions: IC50 PBP2, strain ATCC 49226; membrane preparation, 30 min drug then Bocillin FL
T3 construct: endogenous in cells; host or cells: N. gonorrhoeae ATCC 49226, isolated membrane preparation

[6] = molecular target: T4, PBP1 (Neisseria gonorrhoeae, UniProt O05131); assay: PBP-binding assay (Bocillin FL) in isolated membrane preparations; conditions: strain ATCC 19424
T4 construct: endogenous in cells; host or cells: N. gonorrhoeae ATCC 19424, isolated membrane preparation
Description: as §1

[7] = tested on: N. gonorrhoeae ATCC 19424 and ATCC 49226; assay: MIC, summary over both strains; assay type: cell-based, Neisseria gonorrhoeae
[8] = molecular target: PBP1, PBP2 and PBP3 (Neisseria gonorrhoeae, UniProt P08149, H541N); assay type: binding, Neisseria gonorrhoeae ATCC 19424; conditions: read-out: min. IC50 (minimum observed IC50 value); strain ATCC 19424
[9] = molecular target: PBP1, PBP2 and PBP3 (Neisseria gonorrhoeae, UniProt P08149, A510V/A516G/A574V/F504L/H541N/I556V/I566V/K555Q/P552V); assay type: binding, Neisseria gonorrhoeae ATCC 49226; conditions: read-out: min. IC50 (minimum observed IC50 value); strain ATCC 49226
[10] = molecular target: T5, PBP1, PBP2 and PBP3 (Neisseria gonorrhoeae, UniProt Q5FAB9); assay type: binding, Neisseria gonorrhoeae ATCC 49226; conditions: read-out: min. IC50 (minimum observed IC50 value); strain ATCC 49226
T5 sequence (Q5FAB9 22-469): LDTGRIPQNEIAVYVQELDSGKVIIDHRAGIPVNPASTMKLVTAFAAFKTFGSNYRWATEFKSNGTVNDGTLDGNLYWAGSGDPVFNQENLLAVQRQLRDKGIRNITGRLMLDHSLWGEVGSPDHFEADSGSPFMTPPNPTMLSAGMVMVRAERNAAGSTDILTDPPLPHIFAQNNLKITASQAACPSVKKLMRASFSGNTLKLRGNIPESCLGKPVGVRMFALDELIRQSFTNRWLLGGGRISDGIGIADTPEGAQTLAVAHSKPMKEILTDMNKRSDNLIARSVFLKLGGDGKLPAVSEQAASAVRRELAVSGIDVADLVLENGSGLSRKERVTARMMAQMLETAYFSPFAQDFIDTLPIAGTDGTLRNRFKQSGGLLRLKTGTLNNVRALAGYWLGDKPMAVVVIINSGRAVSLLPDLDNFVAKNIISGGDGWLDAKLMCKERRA

[11] = molecular target: T6, PBP3 (Neisseria gonorrhoeae, UniProt Q5FAB9); conditions: read-out: IC50 PBP3; strain ATCC 19424; membrane preparation, 30 min drug then Bocillin FL
T6 sequence (Q5FAB9 22-469): T5 sequence (Q5FAB9 22-469)

[12] = molecular target: T6, PBP3; conditions: read-out: IC50 PBP3; strain ATCC 49226; membrane preparation, 30 min drug then Bocillin FL
[13] = Neisseria gonorrhoeae, ATCC49226, read-out: MIC
[14] = Neisseria gonorrhoeae, ATCC49226, read-out: MIC (Table S1)
[15] = IC50 PBP1, strain ATCC 49226, membrane preparation, 30 min drug then Bocillin FL
[16] = IC50 PBP2, strain ATCC 19424, membrane preparation, 30 min drug then Bocillin FL
[17] = membrane preparation, 30 min drug then Bocillin FL, read-out: IC50 PBP1 (converted)
[18] = read-out: IC50 PBP1 (Table S1) (converted)
[19] = strain ATCC 19424, membrane preparation, 30 min drug then Bocillin FL, read-out: IC50 PBP2 (converted)

Structure (SMILES)	MIC [1, 13] [mg/L]	MIC [1, 14] [mg/L]	IC50 [2, 15] [µM]	MIC ([3]; read-out: MIC) [mg/L]	MIC ([3]; read-out: MIC (Table S1)) [mg/L]	IC50 [4, 16] [µM]	IC50 [5] [µM]	IC50 [6, 17] [µM]	IC50 [8] [µM]	IC50 [9] [µM]	IC50 [11] [µM]	IC50 [12] [µM]	also measured
CO[C@@]1(NC(=O)Cc2cccs2)C(=O)N2C(C(=O)O)=C(COC(N)=O)CS[C@@H]21 [FOX, cefoxitin]	0.5 (≈ 1.17 µM)	0.5 (≈ 1.17 µM)	2.13	0.25 (≈ 0.585 µM)	0.25 (≈ 0.585 µM)	0.912	> 4.68	1.36	–	–	–	–	–
C[C@@H](O)[C@H]1C(=O)N2C(C(=O)O)=C(SCCN=CN)C[C@H]12 [IPM, imipenem]	0.064 (≈ 0.214 µM)	0.064 (≈ 0.214 µM)	2.67	0.032 (≈ 0.107 µM)	0.032 (≈ 0.107 µM)	0.234	0.568	1.34	–	–	–	–	MIC ([7]; Neisseria gonorrhoeae, across the two ATCC strains): 0.032 to 0.064 mg/L (≈ 0.107 to 0.214 µM)
CC1(C)S[C@@H]2[C@H](/N=C/N3CCCCCC3)C(=O)N2[C@H]1C(=O)O [MEC, amdinocillin]	8 (≈ 24.6 µM)	8 (≈ 24.6 µM)	–	1 (≈ 3.07 µM)	1 (≈ 3.07 µM)	4.09	–	313	4.09	–	–	–	IC50 [6, 18]: 314 µM
C[C@@H](O)[C@H]1C(=O)N2C(C(=O)O)=C(S[C@@H]3CN[C@H](C(=O)N(C)C)C3)[C@H](C)[C@H]12 [MEM, meropenem]	0.016 (≈ 0.0417 µM)	0.016 (≈ 0.0417 µM)	1.17	0.008 (≈ 0.0209 µM)	0.008 (≈ 0.0209 µM)	–	–	0.626	–	–	–	–	times more active ([7]; compared with imipenem): 8 times; IC50 ([4]; IC50 PBP2 (Table S1), strain ATCC 19424): 0.104 µM
CCN1CCN(C(=O)N[C@@H](C(=O)N[C@@H]2C(=O)N3[C@@H]2SC(C)(C)[C@@H]3C(=O)O)c2ccccc2)C(=O)C1=O [PIP, piperacillin]	–	0.125 (≈ 0.242 µM)	> 3.86	0.001 (≈ 0.00193 µM)	0.001 (≈ 0.00193 µM)	–	0.0193	> 3.86	0.0386	0.0193	–	–	MIC increase for strain ATCC 49226 ([1]; ATCC 49226 versus ATCC 19424): 125 fold; IC50 [4, 19]: 0.0386 µM
CC1(C)S[C@@H]2[C@H](NC(=O)[C@H](C(=O)O)c3ccsc3)C(=O)N2[C@H]1C(=O)O [TIC, ticarcillin]	0.5 (≈ 1.3 µM)	0.5 (≈ 1.3 µM)	> 5.2	0.016 (≈ 0.0416 µM)	0.016 (≈ 0.0416 µM)	–	> 5.2	> 5.2	0.494	–	2.73	1.64	IC50 [10]: 1.64 µM; IC50 [4, 19]: 0.494 µM
Cn1c(N)c(NC(=O)NCCN)c[n+]1CC1=C(C(=O)O)N2C(=O)[C@@H](NC(=O)/C(=N\OC(C)(C)C(=O)[O-])c3nsc(N)n3)[C@H]2SC1 [TOL, ceftolozane]	0.25 (≈ 0.375 µM)	0.25 (≈ 0.375 µM)	> 3	0.032 (≈ 0.048 µM)	0.032 (≈ 0.048 µM)	0.06	0.405	> 3	0.06	0.405	> 3	> 3	MIC [1]: 0.250 mg/L (≈ 0.375 µM)
C[C@]1(Cn2ccnn2)[C@H](C(=O)O)N2C(=O)C[C@H]2S1(=O)=O [TZ, tazobactam]	1 (≈ 3.33 µM)	1 (≈ 3.33 µM)	83.3	0.125 (≈ 0.416 µM)	0.125 (≈ 0.416 µM)	3.56	4.8	63.3	3.56	4.8	15.7	18.9	IC50 ([2]; IC50 PBP1 (Table S1), strain ATCC 49226): 83.6 µM; IC50 [6, 18]: 64 µM

From publication PMC10269775, “Penicillin-Binding Protein Occupancy Dataset for 18 β-Lactams and 4 β-Lactamase Inhibitors in Neisseria gonorrhoeae” (Microbiology Spectrum, 2023)
